The values below come from paper PMC9356065, “Novel psoralen derivatives as anti-breast cancer agents and their light-activated cytotoxicity against HER2 positive breast cancer cells” (Scientific Reports, 2022).

One data set relates to MDA-MB-231. As to the kind of experiment: MTT cytotoxicity, 48 h, without UVA. The format is cell-based. The conditions noted are these: Homo sapiens, MDA-MB-231, light or radiation study, hormone-independent breast cancer, read-out: Cytotoxic activity MDA-MB-231 IC50. The method, then:
(§1) MDA-MB-231 (triple-negative breast cancer) was obtained from M.D. Anderson Cancer Center, Houston, TX, USA). T47-D (hormone-dependent breast carcinoma), SK-BR-3 (human HER2+ breast cancer), and MRC-5 (normal embryonic lung fibroblast) were obtained from the American Type Culture Collection (ATCC, Manassas, VA, USA).
(§2) The cytotoxic effect of tested compounds was evaluated in two breast cancer cell lines, MDA-MB-231 and T47-D. Number of survival cells after exposure to tested compounds for 48 h was determined by MTT assay, as previously described.
By IC50 is commonly meant the point on the concentration scale where inhibition reaches its midpoint. Consider `COc1c2occc2c(NCc2ccc(Br)cc2)c2ccc(=O)oc12` [4b, 4-((4-Bromobenzyl)amino)-9-methoxy-7H-furo[3,2-g]chromen-7-one], for which the 50% inhibitory concentration (IC50) stood at 94.4 ± 4.77 µM.

In the case of `COc1c2occc2c(NC(=O)c2ccc(Br)cc2)c2ccc(=O)oc12` [3c, 4-Bromo-N-(9-methoxy-7-oxo-7H-furo[3,2-g]chromen-4-yl)benzamide], the concentration for half-maximal inhibition (IC50) was 91.3 ± 7.84 µM.

The test system of the next data set is T47-D. As to the kind of experiment: MTT cytotoxicity, 48 h, without UVA.
Details: not given
The format is cell-based, human. As to the method:
Additionally, the cytotoxicity towards normal cells, human embryonal lung fibroblast cell MRC-5 was also assessed.
as §1, §2
Regarding `COc1c2occc2c(NCc2ccc(Br)cc2)c2ccc(=O)oc12` [4b, 4-((4-Bromobenzyl)amino)-9-methoxy-7H-furo[3,2-g]chromen-7-one], the “fold superiority of SI over tamoxifen citrate” value is listed as no less than 3.7 fold.

The data set is the same for the next values; noted with them: Homo sapiens, T47D, light or radiation study; hormone-dependent breast cancer; 48 h; without UVA; read-out: Cytotoxic activity T47-D IC50.
For `COc1c2occc2c(NCc2ccc(Br)cc2)c2ccc(=O)oc12` [4b, 4-((4-Bromobenzyl)amino)-9-methoxy-7H-furo[3,2-g]chromen-7-one], the half-maximal inhibitory concentration (IC50) was 10.4 ± 0.79 µM.

For `COc1c2occc2c(NC(=O)c2ccc(Br)cc2)c2ccc(=O)oc12` [3c, 4-Bromo-N-(9-methoxy-7-oxo-7H-furo[3,2-g]chromen-4-yl)benzamide], the IC50 was 10.1 ± 0.53 µM.

Staying with this data set, now noted: SI = IC50 for MRC-5/IC50 for T47-D.
Regarding `COc1c2occc2c(NCc2ccc(Br)cc2)c2ccc(=O)oc12` [4b, 4-((4-Bromobenzyl)amino)-9-methoxy-7H-furo[3,2-g]chromen-7-one], the “Selectivity Index (SI)” value was greater than 12.0.

On to `COc1c2occc2c(NC(=O)c2ccc(Br)cc2)c2ccc(=O)oc12` [3c, 4-Bromo-N-(9-methoxy-7-oxo-7H-furo[3,2-g]chromen-4-yl)benzamide], for which the “Selectivity Index (SI)” value is greater than 11.9.

The target of the next data set is T1, aromatase (CYP19) (Homo sapiens, UniProt P11511).
T1 sequence (P11511 1-503): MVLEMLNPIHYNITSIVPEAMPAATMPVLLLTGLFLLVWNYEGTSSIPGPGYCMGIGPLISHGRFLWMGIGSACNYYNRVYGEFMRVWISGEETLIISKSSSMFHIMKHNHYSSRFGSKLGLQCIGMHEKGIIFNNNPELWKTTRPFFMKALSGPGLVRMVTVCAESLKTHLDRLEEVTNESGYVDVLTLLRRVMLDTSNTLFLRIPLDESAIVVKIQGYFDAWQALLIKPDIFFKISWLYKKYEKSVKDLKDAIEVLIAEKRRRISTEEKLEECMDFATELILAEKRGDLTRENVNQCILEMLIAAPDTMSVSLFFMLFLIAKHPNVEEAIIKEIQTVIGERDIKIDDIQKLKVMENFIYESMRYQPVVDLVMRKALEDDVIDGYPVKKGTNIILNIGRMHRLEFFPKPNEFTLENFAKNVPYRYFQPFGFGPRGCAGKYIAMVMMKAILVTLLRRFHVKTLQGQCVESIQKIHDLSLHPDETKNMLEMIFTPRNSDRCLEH
As to the kind of experiment: Inhibition of aromatase (AIA). The format is biochemical. The conditions noted are these: at 12.5 µM; I = %inhibition lower than 50%; read-out: Aromatase inhibitory activity %Inhibition. The method, then: Estrogens are the critical risk factor for breast cancer initiation and progression and the aromatase enzyme involves in the final step conversion of androgens to estrogens[21],[22]. […] In this study, the synthesized psoralen derivatives were also tested for aromatase inhibitory activity (AIA) which is considered to be one of chemopreventive mechanisms for hormone dependent breast cancer.
Inhibition of the aromatase was performed using the method designed by Stresser et al.[39].
By inhibition is commonly meant the drop in the measured response relative to a control, in per cent. Regarding `COc1c2occc2c(NC(=O)c2ccc(Br)cc2)c2ccc(=O)oc12` [3c, 4-Bromo-N-(9-methoxy-7-oxo-7H-furo[3,2-g]chromen-4-yl)benzamide], the inhibition at 12.5 µM was 13%.

Still in this data set, the particulars now being: read-out: Aromatase inhibitory activity IC50.
With `COc1c2occc2c(NCc2ccc(Br)cc2)c2ccc(=O)oc12` [4b, 4-((4-Bromobenzyl)amino)-9-methoxy-7H-furo[3,2-g]chromen-7-one], the 50% inhibitory concentration (IC50) was determined as 0.9 ± 0.2 µM.

System in a further data set: not listed separately
As to the kind of experiment: Scavenging of diphenyl-picryl-hydrazyl radicals (DPPH). The conditions noted are these: half-maximal scavenging concentration, reference compound; read-out: DPPH IC50 (standard). An excerpt: 1. Chemoprevention activity
For the compound `O=C1O[C@H]([C@@H](O)CO)C(O)=C1O` [Ascorbic acid, reference compound], the IC50 came to 43.1 µM.

The same data set, now with this note: read-out: DPPH IC50.
Regarding `COc1c2occc2c(NCc2ccc(Br)cc2)c2ccc(=O)oc12` [4b, 4-((4-Bromobenzyl)amino)-9-methoxy-7H-furo[3,2-g]chromen-7-one], the IC50 was 166 µM.

The same data set, now with this note: screening concentration 250 µM.
On to `COc1c2occc2c(NC(=O)c2ccc(Br)cc2)c2ccc(=O)oc12` [3c, 4-Bromo-N-(9-methoxy-7-oxo-7H-furo[3,2-g]chromen-4-yl)benzamide], for which the “DPPH %Inh” value was determined as 6%.

For a further data set, the system named is differentiated HL-60 cells. Description: Inhibition of TPA-induced superoxide anion radical generation (HL-60 Antioxidant). The conditions noted are these: screening concentration 100 µM. The format is cell-based, human. An excerpt: Inhibition of 12-O-tetradecanoylphorbol-13-acetate (TPA)-induced superoxide anion radical generation in differentiated HL-60 cells (HL-60 Antioxidant) TPA-induced superoxide anion radical formation was detected in differentiated HL-60 cells by photometric determination of cytochrome c reduction as previously described by Gerhäuser et al., 2003.ii Superoxide dismutase (SOD;15U) was a positive control. […]
Turning to `COc1c2occc2c(NCc2ccc(Br)cc2)c2ccc(=O)oc12` [4b, 4-((4-Bromobenzyl)amino)-9-methoxy-7H-furo[3,2-g]chromen-7-one], the “HL-60 Antiox. %Inh” value is recorded as “Toxic”.

In the case of `COc1c2occc2c(NC(=O)c2ccc(Br)cc2)c2ccc(=O)oc12` [3c, 4-Bromo-N-(9-methoxy-7-oxo-7H-furo[3,2-g]chromen-4-yl)benzamide], the “HL-60 Antiox. %Inh” value is “Toxic”.

Biological target in the next data set: not listed separately
Description: Inhibition of superoxide radical formation by xanthine/xanthine oxidase (XXO). The format is biochemical. The conditions noted are these: positive control; read-out: XXO IC50 (standard).
From the text: 1. […]
In the case of `O=C(O)c1cc(O)c(O)c(O)c1` [Gallic acid, reference compound], the IC50 worked out at 2.8 ± 0.1 µM.

Still in this data set, the particulars now being: screening concentration 500 µM.
Turning to `COc1c2occc2c(NC(=O)c2ccc(Br)cc2)c2ccc(=O)oc12` [3c, 4-Bromo-N-(9-methoxy-7-oxo-7H-furo[3,2-g]chromen-4-yl)benzamide], the “XXO %Inh” value worked out at 25%.

System in a further data set: not given
Test: not given
Details: not given
In general, melting point refers to the temperature, or range, at which the solid turns liquid. For `COc1c2occc2c(NCc2ccc(Br)cc2)c2ccc(=O)oc12` [4b, 4-((4-Bromobenzyl)amino)-9-methoxy-7H-furo[3,2-g]chromen-7-one], the melting point is 150 to 151 °C.

In turn, `COc1c2occc2c(NC(=O)c2ccc(Br)cc2)c2ccc(=O)oc12` [3c, 4-Bromo-N-(9-methoxy-7-oxo-7H-furo[3,2-g]chromen-4-yl)benzamide] returned a melting point of 293 to 294 °C.

A further data set has as its system MCF-7.
Test: not given
The conditions noted are these: Fig. 1d; cited from earlier work.
As to `CCNC(=S)Nc1c2ccoc2c(OC)c2oc(=O)ccc12` [IVa], the “anti-cancer activity (MCF-7)” value is “Inactive”.

On to `COc1c2occc2c(N=Cc2cccs2)c2ccc(=O)oc12` [II], for which the “anti-cancer activity (MCF-7)” value is given as “Inactive”.

`COc1c2occc2c(N2C(=O)CSC2c2ccc(Br)cc2)c2ccc(=O)oc12` (stereo not shown) [III]: the “anti-cancer activity (MCF-7)” value is listed as “Inactive”.

Take `COc1c2occc2c(NC(=S)NCc2ccccc2)c2ccc(=O)oc12` [IVb]: the “anti-cancer activity (MCF-7)” value is given as “Inactive”.
